Reference: PubChem BioAssay (NCI)
Where “and” joins values, the source holds several entries; their conditions need not be identical. Identical values can stand only once.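 Results reflect a 48-hour exposure of cells in 96-well plates to compound at five concentrations. GI50 = concentration required for 50% inhibition of growth. TGI: total growth inhibition.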 Where a SMILES comes first, the peptide text is derived from it. [ ]: non-standard residue; d: D form. The star is where a group is joined. Phe(4-NO2) = N[CH](Cc1ccc([N+](=O)[O-])cc1)C(=O)O; Boc = CC(C)(C)OC(=O)*; OtBu = CC(C)(C)O*

Assays:
Experiment in all cases: growth of human tumour cells (NCI), 48 h
HOP-62 NSCLC = system: HOP-62 NSCLC
CCRF-CEM leukemia = system: CCRF-CEM leukemia
KM20L2 colon = system: KM20L2 colon
MCF7 breast = system: MCF7 breast
XF 498 CNS = system: XF 498 CNS
DLD-1 colon = system: DLD-1 colon
SF-539 CNS = system: SF-539 CNS
SR leukemia = system: SR leukemia
MDA-MB-231 breast = system: MDA-MB-231 breast
786-0 renal = system: 786-0 renal
BT-549 breast = system: BT-549 breast

SMILES | GI50 (HOP-62 NSCLC) | TGI (HOP-62 NSCLC) | GI50 (CCRF-CEM leukemia) | TGI (CCRF-CEM leukemia) | GI50 (KM20L2 colon) | TGI (KM20L2 colon) | GI50 (MCF7 breast) | TGI (MCF7 breast) | TGI (XF 498 CNS) | GI50 (DLD-1 colon) | TGI (DLD-1 colon) | GI50 (SF-539 CNS) | TGI (SF-539 CNS) | TGI (SR leukemia) | TGI (MDA-MB-231 breast) [µM] | TGI (786-0 renal) | TGI (BT-549 breast) | GI50 (BT-549 breast) | GI50 (MDA-MB-231 breast) [µM]
CC(=O)c1c(O)c(C)c(O)c2c1OC1=CC(=O)C(C(C)=O)C(=O)C12C (stereo not given) | 3.66 µM and 20.1 µM | 12.2 µM and 46.1 µM | 4.26 µM and 20.7 µM | 26.2 µM and 72.6 µM | 4.99 µM and 27 µM | 16.9 µM and 65.3 µM | 5.75 µM and 12 µM | 24.7 µM and 26 µM | 0.807 µM and 0.835 µM | 4.9 µM and 16.1 µM | 29.9 µM and 69 µM | 5.09 µM and 16.3 µM | 18.4 µM and 23.5 µM |  |  |  |  |  | 
COc1ccc(CC2C(=O)NC(C)C(=O)N(C)C3Cc4ccc(cc4)Oc4cc(ccc4O)CC(C(=O)NC(C)C(=O)NC(C)C(=O)N2C)N(C)C3=O)cc1 (stereo not given) | 0.00218 µM |  | < 0.0001 µM | 0.122 µM |  | 0.49 µM | < 0.0001 µM |  | 0.0224 µM |  | 1.09 µM | < 0.0001 µM | 0.0219 µM and 0.0288 µM | 0.112 µM | 0.0671 |  |  |  | 
COc1ccc(C[C@H]2COC(=O)[C@@H]2Cc2cc(OC)c(OC)c(OC)c2)cc1OC |  | > 100 µM |  | > 100 µM |  |  |  | > 100 µM |  |  |  |  | > 100 µM | > 100 µM | > 100 | > 100 µM | > 100 µM |  | 
Cc1cc(S(=O)(=O)NC(=NCC(=O)NN)NN)c(S)cc1Cl |  | > 10 µM |  | > 10 µM |  |  |  | > 10 µM |  |  |  |  | > 10 µM | > 10 µM | > 10 | > 10 µM | > 10 µM |  | 
COCCCN1C(=O)C2c3[nH]c4ccccc4c3C3CCC(C(C)(C)C)CC3C2C1=O (stereo not given) |  | 52.2 µM |  | 52.9 µM |  |  |  | 56.2 µM |  |  |  |  | 70.2 µM | 80.6 µM | 56.3 | 63.1 µM | > 100 µM |  | 
C=C1C(=O)C[C@@]23CCC[C@@]12CC(O)C3 (stereo not given in full) |  | > 100 µM |  | 56.2 µM |  | 47.9 µM |  | 33.6 µM | 41.1 µM |  | 54.8 µM |  | 61.3 µM |  |  |  |  |  | 
Cc1cnc2[nH]c(-c3ccccc3)cc(=O)c2c1 |  | > 100 µM |  | 2.79 µM |  |  |  | > 100 µM |  |  |  |  | 0.0671 µM | > 100 µM | > 100 | > 100 µM | > 100 µM |  | 
CN1C/C(=C\c2ccccc2[N+](=O)[O-])C(=O)/C(=C/c2ccccc2[N+](=O)[O-])C1 |  | 7.8 µM and 8.77 µM | 0.226 µM and 0.0611 µM | 0.542 µM and 0.568 µM |  |  |  | 1.94 µM and 3.04 µM |  |  |  | 0.53 µM and 1.13 µM | 2.3 µM and 3.86 µM | 13.2 µM and 7.93 µM | 0.911 | 1.01 µM and 0.467 µM | 0.448 µM and 2.09 µM | 0.149 µM and 0.626 µM | 0.284
Cc1nn(C(=O)c2ccccc2O)c2c1C(c1ccc(O)cc1)SC(N)=N2 (stereo not given) |  | > 10 µM |  | > 10 µM |  |  |  | > 10 µM |  |  |  |  | > 2.47 µM | > 3.92 µM | > 10 | > 10 µM | > 10 µM |  | 
CC(=O)Nc1ccc(C(=O)N2N=C(C)/C(=C/c3cccc(O)c3)C2=O)cc1 |  | > 100 µM |  | > 100 µM |  |  |  |  | > 100 µM |  | > 100 µM |  | > 100 µM |  |  | > 100 µM |  |  | 
c1ccc(COc2ncccc2C2SCCCS2)cc1 |  | > 100 µM |  | > 100 µM |  |  |  | > 100 µM |  |  |  |  | > 100 µM | > 100 µM | > 100 | > 100 µM | > 100 µM |  | 
COc1cc2cc3c4c(cc(OC)c(OC)c4c2cc1OC)CCN3C(=O)OCCBr |  |  |  | 88.2 µM |  | > 100 µM |  |  | > 100 µM |  | > 100 µM |  | > 100 µM | > 100 µM |  | > 100 µM |  |  | 
CNC(=O)OCC1=C(COC(=O)NC)CN(c2ccccc2)C1 |  | > 100 µM |  | > 100 µM |  |  |  | > 100 µM |  |  |  |  | > 100 µM | > 100 µM | > 100 | > 100 µM | > 100 µM |  | 
CN(Cc1nc2c(N)nc(N)nc2nc1N)c1ccc(C(=O)NC(CCC(=O)O)C(=O)O)cc1 (stereo not given) |  | > 100 µM |  | > 100 µM |  |  |  | > 100 µM |  |  |  |  | > 100 µM | > 100 µM | > 100 | > 100 µM | > 100 µM |  | 
Cc1ccc(C2=Nn3c(nc4sc(-c5ccccc5)cc4c3=O)SC2)cc1 |  | > 100 µM |  | > 100 µM |  |  |  | > 100 µM |  |  |  |  | > 100 µM | > 100 µM | > 100 | > 100 µM | > 100 µM |  | 
O=C(O)c1ccccc1-c1ccccc1C(=O)c1ccccc1 |  | > 100 µM |  | > 100 µM |  |  |  | > 100 µM |  |  |  |  | > 100 µM | > 100 µM | > 100 | > 100 µM | > 100 µM |  | 
O=C(CCN1CCCCC1CO)Nc1ccc2c(c1)C(=O)c1ccc(NC(=O)CCN3CCCCC3CO)cc1C2=O (stereo not given) |  | 64.2 µM |  | 30.5 µM |  | 76.4 µM |  |  |  |  |  |  | 16.1 µM | 68.9 µM |  | 6.58 µM |  |  | 
COC(=O)C(Cc1ccc([N+](=O)[O-])cc1)NC(=O)C(CC(=O)OC(C)(C)C)NC(=O)OC(C)(C)C (stereo not given) (Boc-Asp(OtBu)-[Phe(4-NO2)]-OMe; configuration not given here) |  | > 100 µM |  | > 100 µM |  |  |  | > 100 µM |  |  |  |  | > 100 µM | 54 µM | 68.4 | > 100 µM | > 100 µM |  | 
CC(=O)Oc1ccc2c(c1)c1c(OC(C)=O)c3ccccc3c(OC(C)=O)c1n2Cc1cccc(C)c1 |  | 67.3 µM |  | 62.6 µM |  |  |  | > 100 µM |  |  |  |  | 79.3 µM | 83.1 µM | > 100 | > 100 µM | > 100 µM |  | 
COC1(OC)/C(=C(\N)C=O)NC(C)(C)N1O |  | > 100 µM |  | > 100 µM |  |  |  | > 100 µM |  |  |  |  | > 100 µM | > 100 µM | > 100 | > 100 µM | > 100 µM |  | 
O=C(O)c1ccc(Nc2cnc3ccc(C(F)(F)F)cc3n2)cc1 |  | 38.9 µM |  | 43.1 µM |  |  |  | > 100 µM |  |  |  |  | 58.2 µM | 43.8 µM | 36.9 | > 100 µM | 60.1 µM |  | 
CSC1(SC)CCCCCCCCCCC1 |  | > 100 µM |  | 48.6 µM |  |  |  | 38.1 µM |  |  |  |  | > 100 µM | > 100 µM | > 100 | > 100 µM | > 100 µM |  | 
Fc1nc(F)nc(-c2c3ccccc3c3n2CCS3)n1 |  | > 100 µM |  | > 100 µM |  | > 100 µM |  |  | > 100 µM |  | > 100 µM |  | > 100 µM | > 100 µM |  | > 100 µM |  |  | 
CCC1(O)CN(CCOC)[C@H]2C[C@@H]1C(=O)c1[nH]c3ccccc3c12 (stereo not given in full) |  | > 100 µM |  | > 100 µM |  |  |  | > 100 µM |  |  |  |  | > 100 µM | > 100 µM | > 100 | > 100 µM | > 100 µM |  | 
O=C1O/C(=C\c2ccc(O)cc2)C(c2ccc(O)c(Cl)c2)=C1Br |  | 35.3 µM |  | 32.8 µM |  |  |  | 37.1 µM |  |  |  |  | 29.1 µM | 21 µM | 59.9 | 31.6 µM | 23.8 µM |  | 
c1ccc(C/C(=N\Nc2nc3ccccc3o2)c2ccccn2)cc1 |  | 1.55 µM |  | 0.0473 µM |  |  |  | 0.0215 µM |  |  |  |  | 1.21 µM | 2.05 µM | 16.7 | 0.136 µM | 5.73 µM |  | 
CN(C)CCn1c(=O)c2ccc(NCCNCCO)c3c(=O)c4cc(O)ccc4n(c1=O)c23 |  | 4.16 µM |  | 2.05 µM |  |  |  | 6.23 µM |  |  |  |  | 1.65 µM | 0.619 µM | 3.37 | 13.2 µM | 32.4 µM |  | 
N#Cc1nnc2c3c(-c4ccc(Cl)cc4)c(C#N)c(=O)[nH]c3nn2c1N |  | 21.8 µM |  | > 100 µM |  |  |  | 16.3 µM |  |  |  |  | 12.5 µM | 16.7 µM | 43.5 | 18.2 µM | 10.3 µM |  | 
